Assays:
[1] = test system: human ovarian cancer cell line A2780; experiment: MTT cell viability assay, A2780; type: cell-based; conditions: 48 h incubation, A2780 cells
From the text: (§1) To identify anti-tumor constituents in Pueraria Flos, we examined the effects of the 25 isolates on the cell viability of the human ovarian cancer A2780 cell line using the MTT assay. […] To further evaluate the effect of the compounds on the cell viability of non-malignant ovarian epithelial cells, we explored the cytotoxicity of the eight compounds (8, 10, 11, 12, 14, 16, 17, and 21) against the immortalized human ovarian surface epithelial cell line IOSE80PC.
(§2) Human ovarian endometrioid adenocarcinoma cell line A2780 and immortalized ovarian surface epithelial cell line IOSE80PC were provided by Dr. Ie-Ming Shih (Johns Hopkins School of Medicine, Baltimore, MD, USA) and Dr. N. Auersperg (University of British Columbia, Vancouver, British Columbia, Canada), respectively. The cells were cultured in Roswell Park Memorial Institute (RPMI) 1640 supplemented with 5% fetal bovine serum (FBS), penicillin (100 U/mL), and streptomycin sulfate (100 μg/mL) in a 5% CO2 and 95% air humidified atmosphere at 37 °C. RPMI 1640, FBS, streptomycin sulfate, and penicillin were procured from Life Technologies Inc. (Grand Island, NY, USA). The cells were seeded at a density of 1.0 × 10^5 cells/mL in a 96-well plate containing 50 μL of RPMI medium in each well and incubated for 24 h. Various concentrations of compounds dissolved in dimethyl sulfoxide (DMSO) were mixed with RPMI 1640 medium and added into cells in each well. […] Following 48 h incubation, 50 μL of MTT (Molecular Probes Inc., Eugene, OR, USA) solution was added into each well to achieve a final concentration of 0.5 mg/mL and then incubated for an additional 4 h. The medium was discarded, and the formazan blue that formed in the cells was dissolved in 50 μL of DMSO. The optical density was measured at 540 nm by microplate spectrophotometer (SpectraMax; Molecular Devices, Sunnyvale, CA, USA). […] IC50 is defined as the concentration that reduces cell number by 50% compared to control cultures.

[2] = test system: immortalized human ovarian surface epithelial cell line IOSE80PC; experiment: MTT cell viability assay, IOSE80PC; type: cell-based; conditions: 48 h incubation, IOSE80PC cells
From the text: as §1, §2

[3] = test system: ovarian cancer cell line A2780; set-up: method as in PMID 18974065, PMID 19447105; conditions: by suppressing the expression of Id1 and focal adhesion kinase; cited from earlier work
[4] = test system: ovarian cancer cell line OVCAR3; set-up: method as in PMID 19005980; conditions: cited from earlier work
VEGF expression = test system: VEGF expression; set-up: method as in PMID 19005980; conditions: cited from earlier work
[5] = test system: breast cancer cell line MCF-7; set-up: method as in PMID 27784319, PMID 15787436; conditions: cited from earlier work
MCF-7 = test system: MCF-7; set-up: method as in PMID 19026551; conditions: cited from earlier work
Lu1 = test system: Lu1; set-up: method as in PMID 19026551; conditions: cited from earlier work
LNCaP = test system: LNCaP; set-up: method as in PMID 19026551; conditions: cited from earlier work
(HEK293) = test system: (HEK293); set-up: method as in doi:10.1016/0031-9422(93)85369-3, PMID 24018191; conditions: cited from earlier work
[6] = test system: colon adenocarcinoma (SW-480); set-up: method as in doi:10.1016/0031-9422(93)85369-3, PMID 24018191; conditions: cited from earlier work
[7] = test system: murine lymphocytic leukemia (P-388); set-up: method as in doi:10.1016/0031-9422(93)85369-3, PMID 24018191; conditions: cited from earlier work

SMILES | IC50 ([1]; Homo sapiens, A2780, 48 h) [µM] | IC50 ([2]; Homo sapiens, IOSE-80PC) [µM] | also measured
N.N.[Cl][Pt][Cl] [Cisplatin, cisplatin, reference compound] |  |  | IC50 [1]: 10.7 ± 0.81 µM; IC50 [2]: 12.8 ± 0.55 µM
O=C1C[C@@](O)(c2ccc(O)cc2)Oc2cc(O)cc(O[C@@H]3O[C@H](CO)[C@@H](O)[C@H](O)[C@H]3O)c21 [Compound 6, 2-hydroxy-naringenin-5-O-β-D-glucopyranoside] | > 100 |  | 
O=c1cc(-c2ccc(O)cc2)oc2cc(O)cc(O)c12 [Compound 8, apigenin] |  | > 100 | proliferation and migration of A2780 [3]: inhibits the proliferation and migration
C[C@@H]1O[C@@H](OC[C@H]2O[C@@H](Oc3c(-c4ccc(O)cc4)oc4cc(O)cc(O)c4c3=O)[C@H](O)[C@@H](O)[C@@H]2O)[C@H](O)[C@H](O)[C@H]1O [Compound 9, nicotiflorin] | > 100 |  | 
O=c1c(-c2ccc(O)cc2)coc2cc(O)cc(O)c12 [Compound 10, genistein] |  | > 100 | cell proliferation in OVCAR3 [4]: inhibits cell proliferation; VEGF expression in OVCAR3 (VEGF expression): downregulates VEGF expression
COc1c(O)cc2occ(-c3ccc(O)cc3)c(=O)c2c1O [Compound 11, tectorigenin] |  | > 100 | 
COc1c(O)cc2occ(-c3ccc(O)c(O)c3)c(=O)c2c1O [Compound 12, irilin D] | < 100 | > 100 | anticancer activity in MCF-7 [5]: anticancer activity; IC50 [1]: 57.5 ± 3.08 µM
COc1c(O[C@@H]2O[C@H](CO)[C@@H](O)[C@H](O)[C@H]2O)cc2occ(-c3ccc(O)cc3)c(=O)c2c1O [Compound 13, tectoridin] | > 100 |  | 
COc1ccc(-c2coc3cc(OC4OC(CO)C(O)C(O)C4O)c(OC)c(O)c3c2=O)cc1 [Compound 14, irisolidone-7-O-β-D-glucopyranoside] | < 100 | > 100 | IC50 [1]: 71.2 ± 11.3 µM
COc1c(OC2OC(COC3OCC(O)C(O)C3O)C(O)C(O)C2O)cc2occ(-c3ccc(O)cc3)c(=O)c2c1O [Compound 15, tectorigenin-7-O-β-D-xylopyranosyl-(1→6)-O-β-D-glucopyronoside] | > 100 |  | 
COc1cc2c(=O)c(-c3ccc(O)cc3)coc2cc1O [Compound 16, glycitein] |  | > 100 | 
COc1ccc(-c2coc3cc(O)c(OC)cc3c2=O)cc1 [Compound 17, afromosin] |  | > 100 | anticancer activity in MCF-7 [5]: anticancer activity
COc1cc([C@@H]2Oc3ccc(-c4cc(=O)c5c(O)cc(O)cc5o4)cc3O[C@H]2CO)ccc1O [Compound 21, (-)-hydnocarpin] |  | 65.8 ± 1.6 | cytotoxicity against MCF-7 (MCF-7): no cytotoxicity; cytotoxicity against Lu1 (Lu1): no cytotoxicity; cytotoxicity against LNCaP (LNCaP): no cytotoxicity; antiproliferative activity against HEK293 ((HEK293)): considerable antiproliferative activities; antiproliferative activity against SW-480 [6]: considerable antiproliferative activities; antiproliferative activity against P-388 [7]: considerable antiproliferative activities
C[C@@H]1O[C@@H](OC[C@H]2O[C@@H](OCc3ccccc3)[C@H](O)[C@@H](O)[C@@H]2O)[C@H](O)[C@H](O)[C@H]1O [Compound 22, hydrageifolin I] | > 100 |  | 
O=c1c(O)c(-c2ccc(O)c(O)c2)oc2cc(O)cc(O)c12 [Quercetin, quercetin, reference compound] | 19.4 ± 2.92 | > 100 | 
